Measured values published in patent US20110112308A1 (NOVARTIS AG, priority 2006, published 2011).

What was measured:
[1] = Solubility, 24-hour equilibration at room temperature; format: physicochemical; details: for Solubility: approx. at 25° C.
In short: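 20-50 mg sample in 1 ml solvent, equilibrated 24 h at room temperature. Dissolved amount measured gravimetrically or by UV-VIS, and pH of the clear solution recorded; salts may dissociate to free form, affecting solubility and pH.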

[2] = pH of saturated solution or 1% suspension in water; format: physicochemical; details: room temperature
Procedure: pH Value: The pH at room temperature of a saturated solution or 1% suspension of the drug substance in water was recorded.

[3] = Intrinsic dissolution rate, rotation disk method; format: physicochemical; details: for Intrinsic Dissolution Rate: 37° C., 200 r.p.m.
In short: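 Pellets of drug substance dissolved by rotating disk at 200 r.p.m. into a 500 mL vessel at 37 °C. Dissolved drug monitored continuously by recirculating the medium through a UV cell.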

[4] = Solution stability (HPLC); format: physicochemical
Procedure: (§1) All samples were prepared/diluted to a concentration of 0.2 mg/mL in methanol prior to analysis by HPLC. A freshly prepared sample of each salt was used as the reference standard for external standard calibration analysis.

Solid-state stability = format: physicochemical; details: for Bulk stability (XRPD): 1 week
Procedure: as §1

[5] = Stability of mixtures with excipients; format: physicochemical
Procedure: as §1

[6] = pH of saturated solution or 1% suspension in water; format: physicochemical; details: In pH = 6.8 buffer
[7] = Equilibration in solvents and buffers: form conversion
[8] = 2 mg/mL in methanol, 1 week at 50° C.
[9] = 2 mg/mL in water, 1 week at 50° C.
[10] = 2 mg/mL, 100 mM lactate buffer pH 3.5, 1 week at 50° C.
[11] = 2% in 0.5% HPMC 4000, 1 day at RT
[12] = 2% in 0.5% Klucel HF, 1 day at RT
[13] = 2% in 0.8% Tween 80, 1 day at RT
[14] = 5% solution, 1 day at RT (diluted 1:100 in pH 6.8 buffer)
[15] = Bulk stability, 2 weeks, 50° C.
[16] = Bulk stability, 2 weeks, 50° C./20% water
[17] = Bulk stability, 2 weeks, 50° C./75% r.h.
[18] = Light study, 1200 kLux (300-800 nm)
[19] = Mixture 1: 50% PVP + 50% Crospovidone, 50° C./75% r.h., 2 weeks
[20] = Mixture 2: 50% Starch 1500 + 5% MCC 102, 50° C./75% r.h., 2 weeks
[21] = Mixture 3: 5% PVP + 5% Crospovidone + 10% Starch 1500 + 80% MCC 102, 50° C./75% r.h., 2 weeks
[22] = Mixture 4: 99% Lactose + 1% BHT/BHA, 50° C./75% r.h., 2 weeks
[23] = Mixture 5: 99% Mannitol + 1% BHT/BHA, 50° C./75% r.h., 2 weeks
[24] = Mixture 6: 50% Mannitol + 47% HPCLH21 + 1% BHT/BHA + 2% Magnesium Stearate, 50° C./75% r.h., 2 weeks
[25] = Mixture 7: 50% Cetyl Alcohol + 49% HPCLH21 + 1% Magnesium Stearate, 50° C./75% r.h., 2 weeks
[26] = Mixture 8: 100% PEG 3350, 50° C./75% r.h., 2 weeks

Cc1[nH]c2ccccc2c1CCNCc1ccc(/C=C/C(=O)NO)cc1.Cl [HCl, hydrochloride salt of N-hydroxy-3-[4-[[[2-(2-methyl-1H-indol-3-yl)ethyl]amino]methyl]phenyl]-2E-2-propenamide]
aqueous solubility [1]: 2400 µg/mL
solubility in methanol, in words [1]: high
solubility in other common / remaining organic solvents, in words [1]: considerable
Solubility ([1]; 0.1N HCl): 200 µg/mL
Solubility ([1]; 2-Propanol): 800 µg/mL
Solubility ([1]; Acetone): 4500 µg/mL
Solubility ([1]; Ethanol): 2100 µg/mL
Solubility ([1]; Ethyl acetate): 6500 µg/mL
Solubility ([1]; Methanol): 16600 µg/mL
Solubility ([1]; Propylene glycol): 13200 µg/mL
Solubility ([1]; Water): 2400 µg/mL
approximate solubility in water as % ([1]; estimated from mg/mL assuming solution density 1 g/mL): approximately 0.3%
Solubility ([1]; pH = 6.8 buffer): 700 µg/mL
pH of saturated solution [2]: 5.65
intrinsic dissolution (rate), in words [3]: good
Intrinsic Dissolution Rate ([3]; HCl 0.1N): 0.13 mg min^−1 cm^−2
Intrinsic Dissolution Rate ([3]; Water, free base pellet disintegrated, not true intrinsic rate): 0.68 mg min^−1 cm^−2
pH of initial mixture ([4]; 2 mg/mL in 100 mM lactate buffer, pH 3.5): 3.52
% DP (total degradation products) [4, 8]: 0.38 % area
assay [4, 8]: [99.25]
pH of initial mixture ([4]; 2 mg/mL in water): 5.93
% DP (total degradation products) [4, 9]: 0.89 % area
CL (appearance) [4, 9]: A↓*
assay [4, 9]: [97.53]
% DP (total degradation products) [4, 10]: 1.30 % area
CL (appearance) [4, 10]: A↓*
assay ([4]; 2 mg/mL, 100 mM lactate buffer pH 3.5, 1 week at 50° C., external standard): [96.61]
% DP (total degradation products) ([4]; 2% in 0.5% CMC, 1 day at RT): 0.46 % area
CL (appearance) ([4]; 2% in 0.5% CMC, 1 day at RT): A↓↓
assay ([4]; 2% in 0.5% CMC, 1 day at RT): [85.28]
% DP (total degradation products) [4, 11]: 0.43 % area
assay [4, 11]: [100.0]
% DP (total degradation products) [4, 12]: 0.43 % area
assay [4, 12]: [100.6]
% DP (total degradation products) [4, 13]: 0.43 % area
assay [4, 13]: [97.83]
% DP (total degradation products) [4, 14]: 1.40 % area
CL (appearance) [4, 14]: A↓
assay [4, 14]: [98.91
stability characteristics, in words ([4]; both in solution and in the solid state): very good stability
Unstressed (% Area) ([4]; unstressed baseline of the stability study): 99.63% Area
Bulk stability (XRPD) (Solid-state stability; 80° C.): no change
Bulk stability (XRPD) (Solid-state stability; 80° C./75% r.h.): no change
% DP (total degradation products) (Solid-state stability; [15]): 0.44 % area
assay (Solid-state stability; [15]): [99.38]
% DP (total degradation products) (Solid-state stability; [16]): 0.56 % area
assay (Solid-state stability; [16]): [100.6]
% DP (total degradation products) (Solid-state stability; [17]): 0.56 % area
assay (Solid-state stability; [17]): [99.04]
% DP (total degradation products) (Solid-state stability; [18]): 2.58 % area
CL (appearance) (Solid-state stability; [18]): C (C = medium discoloration)
assay (Solid-state stability; [18]): [98.15]
% DP (total degradation products) [5, 19]: 0.6 % area
% DS (drug substance) [5, 19]: 99.4 % area
% DP (total degradation products) [5, 20]: 0.5 % area
% DS (drug substance) [5, 20]: 99.5 % area
% DP (total degradation products) [5, 21]: 0.6 % area
% DS (drug substance) [5, 21]: 99.4 % area
% DP (total degradation products) [5, 22]: 0.5 % area
% DS (drug substance) [5, 22]: 99.5 % area
% DP (total degradation products) [5, 23]: 0.5 % area
% DS (drug substance) [5, 23]: 99.5 % area
% DP (total degradation products) [5, 24]: 0.5 % area
% DS (drug substance) [5, 24]: 99.5 % area
% DP (total degradation products) [5, 25]: 0.5 % area
% DS (drug substance) [5, 25]: 99.5 % area
% DP (total degradation products) [5, 26]: 0.5 % area
% DS (drug substance) [5, 26]: 99.5 % area
% DP (total degradation products) ([5]; Standard, freshly prepared): 0.3 % area
% DS (drug substance) ([5]; Standard, freshly prepared): 99.7 % area
stability with all excipient mixtures tested, in words ([5]; after 2 weeks at 50° C./75% r.h.): very good stability
pH of saturated solution [6]: 5.67
polymorphs upon equilibration ([7]; ambient temperature): No additional polymorphs are detected
conversion upon equilibration ([7]; phosphate buffer (pH=6.8)): converts to the free base
